# Several values for one entry are separate records, joined by “and”; a condition that tells them apart may be missing. Identical values can stand only once. Like-named read-outs stand apart in the source and are kept apart here.
# Experiments:
# [1] = system: transfected Jurkat T cells; assay: Calcium influx into activated human T cells (Fluo-3AM); format: cell-based
# Method: To uncover the mode of action of Ruthenium Red, additional experiments were performed. Because it is known that this compound effects Ca^2+ levels in cells, we examined whether Ruthenium Red prevents the rise in intracellular Ca^2+ that accompanies T cell activation. The Ca^2+ -sensitive dye, Fluo-3AM (Molecular Probes, Inc., Eugene, Oreg.), can be used to detect intracellular Ca^2+. For these studies, transfected Jurkat T cells were incubated with Fluo-3AM (1 μM) for one hour at room temperature. The cells were then washed three times and incubated in 1 ml. volumes (5×10^5 cells) with various agents to trigger T cell activation and thus Ca^2+ uptake. Ruthenium Red was added at a concentration of 1 μg/ml (1.27 μM).
# T cells = conditions: mean of 4 determinations
# Method: Alloreactivity was measured by stimulating T cells from one donor with inactivated lymphocytes from a second donor. The inhibition values represent the means of 4 separate determinations.
# [2] = system: human peripheral blood lymphocytes (PBL's); conditions: for 3H-thymidine uptake / % Inhibition: Ruthenium Red 0.2 μg/ml, 3 days
# Method: For these studies, human peripheral blood lymphocytes (PBL's) were incubated in vitro with varying concentrations of IL-2 and in the presence or absence of Ruthenium Red (0.2 μg/ml). After 3 days of culture, ^3 H-thymidine was added for 16 hr, cells were harvested, and the filters counted.
# [3] = system: T cells activated with HSV-1; conditions: 1 μg/ml
# Method: In another study, T cells were activated with HSV-1 as described before and the Ruthenium Red (1 μg/ml) was added either at the start of culture (time 0) or after various delays.
# [4] = system: T cell responses to cytochrome c
# Method: For these studies, B10.A mice were treated with Ruthenium RED as before and immunized with cytochrome c. On day 7 after challenge with antigen, draining lymph nodes were removed and single cell suspensions of lymphocytes were prepared. The lymphocytes were counted to estimate overall yields and were cultured in vitro with antigen (100 μg/ml) for three days prior to addition of tritiated thymidine to quantitate proliferation.
# [5] = system: specific antibody to cytochrome c
# Method: The remaining mice in this study continued on their assigned treatment and were bled on day 23, as in the original pilot study, and sera were tested for specific antibodies in the ELISA. The data has been expressed as the mean of the endpoint dilution.
# [6] = system: human T cell (PBL) proliferation; conditions: for % Inhibition: mean of 5 separate experiments
# [7] = system: specific antibodies to cytochrome c; conditions: 4 mg/kg i.p. daily, 2 days before and 12 days after immunization; day 23
# Lewis lung carcinoma = conditions: mice treated with the dye; cited from earlier work
# [8] = system: smooth muscle plasma membrane of pig stomach cells; conditions: cited from earlier work
# [9] = system: mitochondria of rat liver cells; conditions: cited from earlier work
compound,measurement,setting,value
"CNc1ccc2oc(C[C@H]3O[C@@]4(CC[C@H]3C)O[C@H]([C@H](C)C(=O)c3ccc[nH]3)[C@H](C)C[C@H]4C)nc2c1C(=O)O [Calcium ionophore, reference compound]",% Fluorescent cells,"[1]; Calcium ionophore, without Ruthenium Red",84.6%
N.N.N.N.N.N.N.N.N.N.N.N.N.N.[Cl-].[Cl-].[Cl-].[Cl-].[Cl-].[Cl-].[O-2].[O-2].[Ru+3].[Ru+3].[Ru+4] [Ruthenium Red],% Inhibition of alloreactivity,T cells; 0.1 μg/ml (0.13 μM),69%
same,% Inhibition of alloreactivity,T cells; 0.2 μg/ml (0.25 μM),77%
same,% Inhibition of alloreactivity,T cells; 1.0 μg/ml (1.27 μM),85%
same,% Inhibition of alloreactivity,T cells; 2.5 μg/ml (3.18 μM),92%
same,3H-thymidine uptake,[2]; IL-2 0.01 U/ml,"1,154 cpm"
same,% Inhibition,[2]; IL-2 0.01 U/ml,80%
same,3H-thymidine uptake,[2]; IL-2 1 U/ml,"2,805 cpm"
same,% Inhibition,[2]; IL-2 1 U/ml,92%
same,3H-thymidine uptake,[2]; IL-2 100 U/ml,"3,839 cpm"
same,% Inhibition,[2]; IL-2 100 U/ml,88%
same,proliferative response induced by IL-2 alone,[2]; PBL's,can be inhibited by this compound
same,latest time of addition after triggering with antigen still producing maximal inhibition,[3],≤ 20 h
same,% Inhibition,[3]; time of addition 0 hr,95%
same,% Inhibition,[3]; time of addition 1 hr,97%
same,% Inhibition,[3]; time of addition 2 hr,96%
same,% Inhibition,[3]; time of addition 4 hr,92%
same,% Inhibition,[3]; time of addition 20 hr,86%
same,% Inhibition,[3]; time of addition 33 hr,58%
same,percentage of cells staining positively with the dye (intracellular Ca2+),[1]; 1 μg/ml (1.27 μM),major reduction in the percentage of cells staining positively with the dye
same,% Fluorescent cells,"[1]; Activation (anti-CD2), Ruthenium Red 1 μg/ml (1.27 μM)",17.2%
same,Cell Yield (draining lymph nodes),"[4]; mouse 14, day 7",0.26 × 10^6
same,Cell Yield (draining lymph nodes),"[4]; mouse 16, day 7",0.81 × 10^6
same,Cell Yield (draining lymph nodes),"[4]; mouse 17, day 7",16 × 10^6
same,Specific proliferation,"[4]; mouse 17, day 7, antigen 100 μg/ml, three days in vitro","22,236 cpm"
same,response to cytochrome c,[4]; third mouse,responded normally to cytochrome c
same,enlargement of lymph nodes following immunization,[4]; two of the three mice,no enlargement of lymph nodes following immunization
same,High Responders,"[5]; antibody titer greater than 1:5,120, day 23",2/6
same,mice with titers greater than 1:5000,[5]; day 23,2 of the 6
same,Mean Titer,"[5]; mean of the endpoint dilution, day 23","18,613 ± 13,020"
same,fraction of mice with a greatly reduced response to antigen,"[5]; pilot study, proliferative data and antibody titers together",two thirds
same,% Inhibition,[6]; 0.01 μg/ml (0.01 μM),17%
same,% Inhibition,[6]; 0.1 μg/ml (0.13 μM),31%
same,% Inhibition,[6]; 0.2 μg/ml (0.25 μM),60%
same,% Inhibition,[6]; 1.0 μg/ml (1.27 μM),89%
same,% Inhibition,"[6]; 2.5 μg/ml (3.18 μM), 3.18 µM",~90% and 96%
same,IC50,"[6]; read-out: IC50, inhibition of T cell proliferation, antigen-stimulated human PBL",~200 nM
same,reduction in antibody levels compared to control mice who received water,[7],70%
same,"anti-tumor properties, growth of Lewis lung carcinoma",Lewis lung carcinoma,growth inhibition of Lewis lung carcinoma in mice
same,Ca2+ efflux,[8],inhibit Ca^2+ efflux
same,effect on calcium ion transport,[8]; smooth muscle plasma membrane of pig stomach cells,affect calcium ion transport
same,effect on calcium ion transport,[9],affect calcium ion transport

# — US5238689A, “Use of ruthenium red as immunosuppressive agents” (Procept, Inc., priority 1992, dated 1993)
